Data: US10988523B2, “Modified lipidated Relaxin B chain peptides and their therapeutic use” (Sanofi, priority 2018, dated 2021)
*1 amine or outer side, *2 acyl side, *3 side chain or, on linkers, in order; H or OH if unused. Where a SMILES comes first, the peptide text is derived from it. Side-chain parts run from the residue outwards. [ ]: non-standard residue; d: D form. The star is where a group is joined. X5 = CCCCCCCCCCCCCCCC(=O)N[C@@H](CCC(=O)NCCCC[C@H](NC(=O)CC[C@H](NC(=O)CC[C@H](NC(=O)CC[C@H](NC(=O)CCC(=O)NCCCOCCOCCOCCCNC(=O)CCC(=O)NCCCOCCOCCOCCCN*)C(=O)O)C(=O)O)C(=O)O)C(N)=O)C(=O)O; X15 = CCCCCCCCCCCCCCCCCC(=O)N[C@@H](CCC(=O)N[C@@H](CCC(=O)N[C@@H](CCC(=O)NCCCOCCOCCOCCCNC(=O)COCC(=O)NCCCOCCOCCOCCCNC(=O)COCC(=O)NCCCOCCOCCOCCCNC(=O)COCC(=O)*)C(=O)O)C(=O)O)C(=O)O; X17 = CCCCCCCCCCCCCCC(=O)N[C@@H](CCC(=O)N[C@@H](CCC(=O)N[C@@H](CCC(=O)NCCCOCCOCCOCCCNC(=O)CCC(=O)NCCCOCCOCCOCCCNC(=O)CCC(=O)NCCCOCCOCCOCCCN*)C(=O)O)C(=O)O)C(=O)O; PEG12 = NCCOCCOCCOCCOCCOCCOCCOCCOCCOCCOCCOCCOCCC(=O)O; Lys(Me3) = C[N+](C)(C)CCCC[C@H](N)C(=O)O; γGlu = O=C(O)[C@H](CCC(=O)[*:2])N[*:1]; Stearoyl = CCCCCCCCCCCCCCCCCC(=O)*; PEG4 = NCCOCCOCCOCCOCCC(=O)O; Suc = O=C(CCC(=O)[*:2])[*:1]; αMeK = C[C@](N)(CCCCN)C(=O)O; Nle = CCCC[C@H](N)C(=O)O; AEEA = NCCOCCOCC(=O)O; Aib = CC(C)(N)C(=O)O

Molecular target: T1, RXFP1 (Homo sapiens, UniProt Q9HBX9)
T1 construct: OVCAR5 cells expressing endogenous RXFP1; endogenous in cells; host or cells: OVCAR5 cells
T1 sequence (Q9HBX9 1-757): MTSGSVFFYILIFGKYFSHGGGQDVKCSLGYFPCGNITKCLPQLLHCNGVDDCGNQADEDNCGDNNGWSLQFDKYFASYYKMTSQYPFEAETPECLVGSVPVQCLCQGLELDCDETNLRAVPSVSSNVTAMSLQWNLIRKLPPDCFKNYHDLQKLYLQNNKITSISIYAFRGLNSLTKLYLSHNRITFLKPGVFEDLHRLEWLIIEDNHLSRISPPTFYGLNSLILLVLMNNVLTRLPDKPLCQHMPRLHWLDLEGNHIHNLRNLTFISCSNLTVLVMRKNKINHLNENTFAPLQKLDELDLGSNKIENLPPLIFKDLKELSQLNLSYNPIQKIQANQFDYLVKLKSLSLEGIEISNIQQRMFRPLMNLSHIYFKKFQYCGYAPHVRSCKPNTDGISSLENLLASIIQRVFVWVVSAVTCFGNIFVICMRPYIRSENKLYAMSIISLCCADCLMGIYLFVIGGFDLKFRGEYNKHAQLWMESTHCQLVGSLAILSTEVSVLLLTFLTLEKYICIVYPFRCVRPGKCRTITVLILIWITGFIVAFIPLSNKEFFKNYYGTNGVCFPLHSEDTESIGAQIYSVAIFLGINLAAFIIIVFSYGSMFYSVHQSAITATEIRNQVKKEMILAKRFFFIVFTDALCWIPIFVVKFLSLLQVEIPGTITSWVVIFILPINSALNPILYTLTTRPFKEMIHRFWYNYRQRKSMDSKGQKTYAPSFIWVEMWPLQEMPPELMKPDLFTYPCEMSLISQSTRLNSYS
Assay: OVCAR5 cAMP assay (HTRF), RXFP1 agonist activity
Format: cell-based
Conditions: for EC50: OVCAR5 cells, cAMP HTRF, read-out: EC50 (nM), OVCAR 5 cells (cAMP); for Emax: OVCAR-5, maximal cAMP relative to H2-relaxin maximum (100%), read-out: EMax, OVCAR 5 cells (cAMP)
Outline: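 cAMP accumulation readout: after 1 mM IBMX for 40 min, endogenous-RXFP1 OVCAR5 cells got rising peptide concentrations without FCS, 30 min, 37° C, then lysis with HTRF cAMP reagents. Nonlinear regression gave EC50; Emax expressed relative to H2-relaxin maximum, same occasion.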

| EC50 | Emax | Molecule |
| --- | --- | --- |
| 0.02 nM | 89% | CCCCCCCCCCCCCCCC(=O)N[C@@H](CCC(=O)NCCCC[C@H](NC(=O)CC[C@H](NC(=O)CC[C@H](NC(=O)CC[C@H](NC(=O)CCC(=O)NCCCOCCOCCOCCCNC(=O)CCC(=O)NCCCOCCOCCOCCCNC(=O)[C@H](CCCCNC(C)=O)NC(=O)[C@H](CCCCN)NC(=O)[C@H](CCCNC(=N)N)NC(=O)[C@](C)(CCCCN)NC(=O)[C@H](CO)NC(=O)[C@H](Cc1ccccc1)NC(=O)[C@@H](NC(=O)[C@H](CO)NC(=O)[C@H](CCCC)NC(=O)CNC(=O)[C@H](CCC(=O)O)NC(=O)C(C)(C)NC(=O)C(C)(C)NC(=O)[C@@H](NC(=O)[C@H](CCCCNC(C)=O)NC(=O)[C@H](C)NC(=O)[C@H](CCCNC(=N)N)NC(=O)[C@@H](NC(=O)[C@H](CCCCN)NC(=O)[C@H](CCC(=O)O)NC(=O)[C@H](CCCNC(=N)N)NC(=O)CNC(=O)[C@H](CCC(=O)O)NC(=O)[C@H](CC(C)C)NC(C)=O)C(C)C)[C@@H](C)CC)[C@@H](C)O)C(=O)O)C(=O)O)C(=O)O)C(N)=O)C(=O)O [compound 146] (Ac-LEGREKVRAK(Ac)I[Aib][Aib]EG[Nle]STFS[αMeK]RKK(Ac)-X5) |
| – | 100% | CCCCCCCCCCCCCCC(=O)N[C@@H](CCC(=O)N[C@@H](CCC(=O)N[C@@H](CCC(=O)NCCCOCCOCCOCCCNC(=O)CCC(=O)NCCCOCCOCCOCCCNC(=O)CCC(=O)NCCCOCCOCCOCCCNC(=O)CCC(=O)NCCCC[C@H](NC(=O)[C@H](CCCCNC(C)=O)NC(=O)[C@H](C)NC(=O)[C@H](CCCNC(=N)N)NC(=O)[C@](C)(CCCCN)NC(=O)[C@H](CO)NC(=O)[C@H](Cc1ccccc1)NC(=O)[C@@H](NC(=O)[C@H](CO)NC(=O)[C@H](CCC(N)=O)NC(=O)CNC(=O)[C@H](CCC(=O)O)NC(=O)C(C)(C)NC(=O)C(C)(C)NC(=O)[C@@H](NC(=O)[C@H](CCCCNC(C)=O)NC(=O)[C@H](C)NC(=O)[C@H](CCCNC(=N)N)NC(=O)[C@@H](NC(=O)[C@H](CCCCN)NC(=O)[C@H](CCC(=O)O)NC(=O)[C@H](CCCNC(=N)N)NC(=O)CNC(=O)[C@H](CCC(=O)O)NC(=O)[C@H](CC(C)C)NC(C)=O)C(C)C)[C@@H](C)CC)[C@@H](C)O)C(N)=O)C(=O)O)C(=O)O)C(=O)O [compound 189] (Ac-LEGREKVRAK(Ac)I[Aib][Aib]EGQSTFS[αMeK]RAK(Ac)K([Suc-X17])-NH2) |
| – | 100% | CCCCCCCCCCCCCCCCCC(=O)N[C@@H](CCC(=O)N[C@@H](CCC(=O)N[C@@H](CCC(=O)NCCOCCOCC(=O)NCCOCCOCC(=O)NCCOCCOCC(=O)NCCCC[C@H](NC(=O)[C@H](CCCCNC(C)=O)NC(=O)[C@H](CCCC[N+](C)(C)C)NC(=O)[C@H](CCCNC(=N)N)NC(=O)C(C)(C)NC(=O)[C@H](CO)NC(=O)[C@H](Cc1c[nH]c2ccccc12)NC(=O)[C@@H](NC(=O)[C@H](CO)NC(=O)[C@H](CCCC)NC(=O)CNC(=O)[C@H](CCC(=O)O)NC(=O)C(C)(C)NC(=O)C(C)(C)NC(=O)[C@@H](NC(=O)[C@H](CCCCNC(C)=O)NC(=O)[C@H](C)NC(=O)[C@H](CCCNC(=N)N)NC(=O)[C@@H](NC(=O)[C@H](CCCCN)NC(=O)[C@H](CCC(=O)O)NC(=O)[C@H](CCCNC(=N)N)NC(=O)CNC(=O)[C@H](CCC(=O)O)NC(=O)[C@H](CC(C)C)NC(C)=O)C(C)C)[C@@H](C)CC)[C@@H](C)O)C(N)=O)C(=O)O)C(=O)O)C(=O)O [compound 134] (Ac-LEGREKVRAK(Ac)I[Aib][Aib]EG[Nle]STWS[Aib]R[Lys(Me3)]K(Ac)K([AEEA-AEEA-AEEA-γGlu-γGlu-γGlu-Stearoyl])-NH2) |

More lines, now with the values behind:

| Molecule | EC50 | Emax |
| --- | --- | --- |
| 174 (Ac-LEGREKVRAQI[Aib][Aib]EG[Nle]STWS[Aib]RKKK-NH2; not fully specified (residue 25); printed as Ac-L-E-G-R-E-K-V-R-A-Q-I-Aib-Aib-E-G-Nle-S-T-W-S-Aib-R-K-K-K(PEG2-PEG2-PEG2-gE-gE-gE-Stea)-NH2) [compound 174] | 0.41 nM | – |
| CCCCCCCCCCCCCCCCCC(=O)N[C@@H](CCC(=O)N[C@@H](CCC(=O)N[C@@H](CCC(=O)NCCCOCCOCCOCCCNC(=O)COCC(=O)NCCCOCCOCCOCCCNC(=O)COCC(=O)NCCCOCCOCCOCCCNC(=O)COCC(=O)NCCCC[C@H](NC(=O)[C@H](CCCCNC(C)=O)NC(=O)[C@H](CCCCN)NC(=O)[C@H](CCCNC(=N)N)NC(=O)C(C)(C)NC(=O)[C@H](CO)NC(=O)[C@H](Cc1c[nH]c2ccccc12)NC(=O)[C@@H](NC(=O)[C@H](CO)NC(=O)[C@H](CCCC)NC(=O)CNC(=O)[C@H](CCC(=O)O)NC(=O)C(C)(C)NC(=O)C(C)(C)NC(=O)[C@@H](NC(=O)[C@H](CCCCNC(C)=O)NC(=O)[C@H](C)NC(=O)[C@H](CCCNC(=N)N)NC(=O)[C@@H](NC(=O)[C@H](CCCCN)NC(=O)[C@H](CCC(=O)O)NC(=O)[C@H](CCCNC(=N)N)NC(=O)CNC(=O)[C@H](CCC(=O)O)NC(=O)[C@H](CC(C)C)NC(C)=O)C(C)C)[C@@H](C)CC)[C@@H](C)O)C(N)=O)C(=O)O)C(=O)O)C(=O)O [compound 96] (Ac-LEGREKVRAK(Ac)I[Aib][Aib]EG[Nle]STWS[Aib]RKK(Ac)K(X15)-NH2) | – | 89% |
| CCCCCCCCCCCCCCCCCC(=O)N[C@@H](CCC(=O)N[C@@H](CCC(=O)N[C@@H](CCC(=O)NCCOCCOCC(=O)NCCOCCOCC(=O)NCCCC[C@H](NC(=O)[C@H](CCCCN)NC(=O)[C@H](CCCCN)NC(=O)[C@H](CCCNC(=N)N)NC(=O)C(C)(C)NC(=O)[C@H](CO)NC(=O)[C@H](Cc1c[nH]c2ccccc12)NC(=O)[C@@H](NC(=O)[C@H](CO)NC(=O)[C@H](CCCC)NC(=O)CNC(=O)[C@H](CCC(=O)O)NC(=O)C(C)(C)NC(=O)C(C)(C)NC(=O)[C@@H](NC(=O)[C@H](CCC(N)=O)NC(=O)C(C)(C)NC(=O)[C@H](CCCNC(=N)N)NC(=O)[C@@H](NC(=O)[C@H](CCCCN)NC(=O)[C@H](CCC(=O)O)NC(=O)[C@H](CCCNC(=N)N)NC(=O)CNC(=O)[C@H](CCC(=O)O)NC(=O)[C@H](CC(C)C)NC(C)=O)C(C)C)[C@@H](C)CC)[C@@H](C)O)C(N)=O)C(=O)O)C(=O)O)C(=O)O [compound 69] (Ac-LEGREKVR[Aib]QI[Aib][Aib]EG[Nle]STWS[Aib]RKKK([AEEA-AEEA-γGlu-γGlu-γGlu-Stearoyl])-NH2) | – | 87% |
| CCCCCCCCCCCCCCCCCC(=O)N[C@@H](CCC(=O)N[C@@H](CCC(=O)N[C@@H](CCC(=O)NCCCC[C@H](NC(=O)CCOCCOCCOCCOCCOCCOCCOCCOCCOCCOCCOCCOCCNC(=O)[C@H](CCCCN)NC(=O)[C@H](CCCCN)NC(=O)[C@H](CCCNC(=N)N)NC(=O)C(C)(C)NC(=O)[C@H](CO)NC(=O)[C@H](Cc1c[nH]c2ccccc12)NC(=O)[C@@H](NC(=O)[C@H](CO)NC(=O)[C@H](CCCC)NC(=O)CNC(=O)[C@H](CCC(=O)O)NC(=O)C(C)(C)NC(=O)C(C)(C)NC(=O)[C@@H](NC(=O)[C@H](CCCCNC(C)=O)NC(=O)[C@H](C)NC(=O)[C@H](CCCNC(=N)N)NC(=O)[C@@H](NC(=O)[C@H](CCCCN)NC(=O)[C@H](CCC(=O)O)NC(=O)[C@H](CCCNC(=N)N)NC(=O)CNC(=O)[C@H](CCC(=O)O)NC(=O)[C@H](CC(C)C)NC(C)=O)C(C)C)[C@@H](C)CC)[C@@H](C)O)C(N)=O)C(=O)O)C(=O)O)C(=O)O [compound 32] (Ac-LEGREKVRAK(Ac)I[Aib][Aib]EG[Nle]STWS[Aib]RKK[PEG12]K([γGlu-γGlu-γGlu-Stearoyl])-NH2) | 1.04 nM | 96% |
| CCCCCCCCCCCCCCCCCC(=O)N[C@@H](CCC(=O)N[C@@H](CCC(=O)N[C@@H](CCC(=O)NCCCC[C@H](NC(=O)CCOCCOCCOCCOCCNC(=O)[C@H](CCCCNC(C)=O)NC(=O)[C@H](CCCCN)NC(=O)[C@H](CCCNC(=N)N)NC(=O)C(C)(C)NC(=O)[C@H](CO)NC(=O)[C@H](Cc1c[nH]c2ccccc12)NC(=O)[C@@H](NC(=O)[C@H](CO)NC(=O)[C@H](CCCC)NC(=O)CNC(=O)[C@H](CCC(=O)O)NC(=O)C(C)(C)NC(=O)C(C)(C)NC(=O)[C@@H](NC(=O)[C@H](CCCCNC(C)=O)NC(=O)[C@H](C)NC(=O)[C@H](CCCNC(=N)N)NC(=O)[C@@H](NC(=O)[C@H](CCCCN)NC(=O)[C@H](CCC(=O)O)NC(=O)[C@H](CCCNC(=N)N)NC(=O)CNC(=O)[C@H](CCC(=O)O)NC(=O)[C@H](CC(C)C)NC(C)=O)C(C)C)[C@@H](C)CC)[C@@H](C)O)C(N)=O)C(=O)O)C(=O)O)C(=O)O [compound 123] (Ac-LEGREKVRAK(Ac)I[Aib][Aib]EG[Nle]STWS[Aib]RKK(Ac)[PEG4]K([γGlu-γGlu-γGlu-Stearoyl])-NH2) | – | 88% |
